Results as given in publication PMC9902378, “Quinate-based ligands for irreversible inactivation of the bacterial virulence factor DHQ1 enzyme—A molecular insight” (Frontiers in Molecular Biosciences, 2023).

Experiments:
[1] = biological target: T1, St-DHQ1 (Salmonella typhi, UniProt P24670); assay: Time-dependent irreversible inhibition assay (incubation of enzyme with ligand, residual activity at 234 nm); assay type: biochemical
T1 construct: made in house
T1 sequence (P24670 1-252): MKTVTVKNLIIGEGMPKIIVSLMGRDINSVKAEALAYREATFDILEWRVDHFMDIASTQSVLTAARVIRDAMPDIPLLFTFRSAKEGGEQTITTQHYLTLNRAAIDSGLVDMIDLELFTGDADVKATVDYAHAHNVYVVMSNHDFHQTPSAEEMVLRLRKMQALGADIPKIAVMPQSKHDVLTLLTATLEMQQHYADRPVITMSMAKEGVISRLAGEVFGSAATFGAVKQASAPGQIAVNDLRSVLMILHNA
Experimental: (§1) The inhibitory capacity of compounds 6–8 against DHQ1 enzymes from S. aureus and S. typhi was evaluated. For irreversible inhibition assays, the enzyme was incubated with the ligand and its remaining activity was progressively determined using aliquots from the incubation samples and the control. For reversible competitive inhibition assays, the activity of the enzyme in the presence of increasing amount of ligand was evaluated. The enzyme activity was determined by monitoring the increase in absorbance at 234 nm in the UV spectrum due to formation of the enone-carboxylate chromophore of the enzyme product, 3-dehydroshikimic acid 2).
(§2) The St-DHQ1 and Sa-DHQ1 enzyme were purified as described previously ([Moore et al., 1993]; [Nichols et al., 2004]). Concentrated solutions of St-DHQ1 (0.85 mg mL^−1, 30.74 µM) and Sa-DHQ1 (4 mg mL^−1, 148.13 µM) were stored in potassium phosphate buffer (PPB) (50 mM) and DTT (1 mM) at pH 6.6 and −80°C. When required for assays, aliquots of the enzyme stocks were diluted in water and buffer and stored on ice. DHQ1 was assayed in the forward direction by monitoring the increase in absorbance at 234 nm in the UV spectrum due to the absorbance for the enone-carboxylate chromophore of 3-dehydroshikimic acid (ε/M^−1 cm^−1 12 000). Standard assay conditions were PPB (50 mM, pH 7.2) at 25°C. Each assay was initiated by addition of the substrate. Solutions of 3-dehydroquinic acid 1) were calibrated by equilibration with DHQ1 and measurement of the change in the UV absorbance at 234 nm due to formation of the enone-carboxylate chromophore of 3-dehydroshikimic acid. […] The program GraFit 7.0.3. (Erithacus Software Ltd.). was used for data fitting.
(§3) Incubation of Sa-DHQ1 and St-DHQ1 (2.96 µM from a stock protein concentration of […]) with various aqueous solutions of compounds 6–8 (30–4,000 µM) was carried out in PPB (0.5 mL, 50 mM) at pH 7.2 at 25°C. The activity was determined progressively in duplicate over a 3 h period under the standard assay conditions (see above) using aliquots from the incubation samples and the control. Semilogarithmic plots of residual activity as a function of time with a range of inhibitor concentrations [I] were performed to obtain the first-order rate constant, k obs, calculated from the slope, and is related with k inact KI constants by Equation 1 implemented in GraFit ([Plapp, 1982]): kobs=(kinact I) / (KI)+I) (1)

[2] = biological target: T2, Sa-DHQ1 (Staphylococcus aureus, UniProt Q6GII7); assay: as above; assay type: biochemical
T2 construct: made in house
T2 sequence (Q6GII7 whole entry): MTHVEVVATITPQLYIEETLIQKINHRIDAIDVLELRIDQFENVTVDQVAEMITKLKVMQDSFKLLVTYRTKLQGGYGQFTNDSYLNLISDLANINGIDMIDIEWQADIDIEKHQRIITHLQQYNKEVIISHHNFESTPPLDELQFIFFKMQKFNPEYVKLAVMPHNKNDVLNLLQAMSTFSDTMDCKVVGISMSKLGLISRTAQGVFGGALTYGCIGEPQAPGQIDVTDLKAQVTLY
Experimental: as §1, §2, §3

[3] = biological target: T1, St-DHQ1; assay: MALDI mass spectrometry of enzyme incubated with ligand; assay type: binding; conditions: for covalent modification of enzyme (MALDI): similar studies, incubation with ligand
Experimental: The covalent modification of DHQ1 by compound 6 was also corroborated by mass spectrometry analysis of samples incubated with and without ligand.
St-DHQ1 (3.1 µM from a stock protein concentration of 0.85 mg mL^−1) and Sa-DHQ1 (3.0 µM from a stock protein concentration of 4 mg mL^−1) was incubated with various aqueous solutions of ligands 6–8 in PPB (0.5 mL, 50 mM) at pH 7.2, 25°C. The activity was determined progressively over a 24 h period under the standard assay conditions using aliquots from the incubation samples and the control. The activity was measured at a substrate concentration of 14 µM. The initial rate of each assay was measured. The samples were concentrated and washed (5 mM ammonium carbonate) for MALDI analysis by centrifugation at 4 °C using Amicon® centrifugal filters (Amicon Ultra-10). The samples were freeze-dried, diluted with 5 mM ammonium bicarbonate (5 µL) and analyzed by mass spectrometry using a MALDI TOF/TOF Mass Spectrometer (4,800 Analyzer, AbSciex). The ProteoMass™ MALDI calibration kit (Merck) was employed for calibration and sanipic acid as a matrix. Spectra were analyzed using the Data Explorer™ Software. Experiments were performed in triplicate.
Figure S3. MALDI spectra of St-DHQ1 after incubation with 3-hydroxylaminoquinic acid (6) (left) and the control (right). Incubation conditions were potassium phosphate buffer (50 mM, pH 7.0), 25 °C and (1:120) protein/ligand ratio, 24 h. After incubation and for MALDI analysis, the samples were successively washed with 5 mM […] by centrifugation at 4 °C using Amicon® centrifugal filters and concentrated. Sinapic acid was used as a matrix.
(1 picture or pasted object on this page, not shown here)

[4] = biological target: T1, St-DHQ1; assay: Reversible competitive inhibition assay (initial rates, IC50); assay type: biochemical; conditions: substrate 14 µM, PPB 50 mM, pH 7.2, 25°C
Experimental: as §1, §2
(§4) IC50 values were determined in duplicate by measuring the initial rates at fixed enzyme and substrate concentrations (14 µM) in the absence and in the presence of various compounds concentrations, which was adjusted to the Equation 2 implemented in GraFit: y=Emax / 1+(IC50 / x)^n (2)
(§5) were y is the observed effect at inhibitor concentration x, Emax corresponds to the maximum effect, IC50 is the concentration at which a 50% […] is obtained, and n is the slope of the curve.

[5] = biological target: T2, Sa-DHQ1; assay: as above; assay type: biochemical; conditions: substrate 14 µM, PPB 50 mM, pH 7.2, 25°C
Experimental: as §1, §2, §4, §5

[6] = biological target: T1, St-DHQ1; assay: DHQ1 assay, kinetic parameters of the substrate; assay type: biochemical; conditions: PPB 50 mM, pH 7.2, 25°C
Experimental: as §2

[7] = biological target: T2, Sa-DHQ1; assay: DHQ1 assay, kinetic parameters of the substrate; assay type: biochemical; conditions: PPB 50 mM, pH 7.2, 25°C
Experimental: as §2

[8] = tested on: Salmonella enterica DHQ1 enzyme; conditions: crystal structure PDB ID 4GUI, 1.78 Å; ref Light et al., 2014; cited from earlier work
[9] = PPB 50 mM, pH 7.2, 25°C, time-dependent irreversible inhibition

In the case of `N[C@@H]1C[C@@](O)(C(=O)O)C[C@@H](O)[C@@H]1O` [Compound 7, (1S,3R,4R,5R)-3-amino-1,4,5-trihydroxycyclohexane-1-carboxylic acid], the type of inhibition [1] is reported as “reversible competitive inhibitors”, the type of inhibition [2] is reported as “reversible competitive inhibitors” and the “covalent modification of enzyme (MALDI)” value [3] is reported as “No modifications”. For the same molecule, the IC50 [4] was 528 ± 33 µM and the IC50 [5] was 482 ± 19 µM.
In the case of `O=C1C[C@@](O)(C(=O)O)C[C@@H](O)[C@@H]1O` [3-dehydroquinic acid], the K m [6] is reported as 24 ± 3 µM, the k cat [6] is reported as 1.1 ± 0.1 s⁻¹ and the K m [7] is reported as 18 ± 3 µM. The k cat [7] was 255 ± 12 s⁻¹.
In the case of `O=C(O)[C@@]1(O)C[C@@H](O)[C@H](O)[C@@H]2O[C@@H]21` [Compound 8, (1S,2R,4R,5S,6S)-2,4,5-trihydroxy-7-oxabicyclo[4.1.0]heptane-2-carboxylic acid], the type of inhibition [1] is reported as “reversible competitive inhibitors”, the type of inhibition [2] is reported as “reversible competitive inhibitors” and the “covalent modification of enzyme (MALDI)” value [3] is reported as “No modifications”. The IC50 [4] was > 2000 µM and the IC50 [5] was > 2000 µM.
With `O=C(O)[C@@]1(O)C[C@@H](O)[C@H](O)[C@H](NO)C1` [Compound 6, (1S,3R,4R,5R)-1,3,4-trihydroxy-5-hydroxylaminocyclohexane-1-carboxylic acid] the type of inhibition [1] was “time-dependent irreversible inhibitor”, the k inact ([1]; PPB 50 mM, pH 7.2, 25°C) was 13 ± 1 ms^−1 and the Ki [1, 9] was 130 ± 12 µM. For the same molecule, the type of inhibition [2] was “time-dependent irreversible inhibitor”, the k inact ([2]; PPB 50 mM, pH 7.2, 25°C) was 8 ± 1 ms^−1 and the Ki [2, 9] was 90 ± 8 µM. For the same molecule, the “additional mass of covalently modified enzyme (MALDI)” value ([3]; St-DHQ1, ∼1:120 enzyme/ligand ratio, 24 h, 25°C) was 158.
In the case of `O=C(O)[C@]1(O)C[C@@H](O)[C@@H](O)[C@H](O)C1` [(–)-quinic acid (9), (–)-quinic acid], the “covalent adduct formation with the enzyme” value [8] is listed as “does not form a covalent adduct”.
